The record followed here is PMC12024561, “Production, Biochemical Characterization, and Application of Laccase from Halophilic Curvularia lunata MLK46 Recovered from Mangrove Rhizosphere” (Biology, 2025).

This assay deals with T1, laccase from C. lunata MLK46 (MLK46 laccase).
T1 construct: gene EC 1.10.3.2; secreted native enzyme purified from culture filtrate (ammonium sulphate, DEAE-Sepharose)
Description: spectrophotometric oxidation assay, Lineweaver-Burk. The format is biochemical, Curvularia lunata. To be noted: free enzyme, O2 as electron acceptor, pH and temperature of kinetics not clearly stated ("stated conditions").

As for `Oc1c(Cl)cccc1Cl` [2,6-dichlorophenol], the Michaelis-Menten constant (Km) worked out at 5.55 mM. On to `CCn1c(=NN=c2sc3cc(S(=O)(=O)O)ccc3n2CC)sc2cc(S(=O)(=O)O)ccc21` [ABTS, 2,2’-azino-bis(3-ethylbenzothiazoline-6-sulfonic acid)], for which the Km (A420, standard assay at 50 °C) was found to be 4.17 mM. As for `COc1ccccc1O` [guaiacol], the Km came out at 10.3 mM. As to `COc1cc(-c2ccc(N)c(OC)c2)ccc1N` [o-dianisidine], the Michaelis-Menten constant (Km) is 2.7 mM.

One may read the Km as the concentration of substrate that gives half-maximal velocity.
